Assay results taken from ChEMBL document CHEMBL1139114, “Identification and structure-activity relationships of substituted pyridones as inhibitors of Pim-1 kinase” (Bioorg Med Chem Lett, 2007).

target: Dual specificity mitogen-activated protein kinase kinase 2 (Homo sapiens, UniProt P36507); experiment: Inhibition of MEK2 kinase
Sequence (P36507 whole entry): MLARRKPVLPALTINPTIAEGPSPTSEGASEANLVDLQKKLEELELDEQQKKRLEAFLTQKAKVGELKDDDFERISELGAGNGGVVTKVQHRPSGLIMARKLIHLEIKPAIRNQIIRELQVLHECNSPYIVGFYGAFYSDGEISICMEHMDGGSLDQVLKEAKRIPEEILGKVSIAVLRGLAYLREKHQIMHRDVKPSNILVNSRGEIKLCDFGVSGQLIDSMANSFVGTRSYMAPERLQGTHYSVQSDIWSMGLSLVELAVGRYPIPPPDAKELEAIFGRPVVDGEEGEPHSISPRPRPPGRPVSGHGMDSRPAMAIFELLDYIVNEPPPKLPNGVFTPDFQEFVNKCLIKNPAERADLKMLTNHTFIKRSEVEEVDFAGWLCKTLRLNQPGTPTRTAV

IC50 [µM] | SMILES
> 20 | N#Cc1c(-c2ccccc2)cc(-c2cc(Br)ccc2O)[nH]c1=O

target: Dual specificity mitogen-activated protein kinase kinase 1 (Homo sapiens, UniProt Q02750); experiment: Inhibition of MEK1 kinase
Sequence (Q02750 whole entry): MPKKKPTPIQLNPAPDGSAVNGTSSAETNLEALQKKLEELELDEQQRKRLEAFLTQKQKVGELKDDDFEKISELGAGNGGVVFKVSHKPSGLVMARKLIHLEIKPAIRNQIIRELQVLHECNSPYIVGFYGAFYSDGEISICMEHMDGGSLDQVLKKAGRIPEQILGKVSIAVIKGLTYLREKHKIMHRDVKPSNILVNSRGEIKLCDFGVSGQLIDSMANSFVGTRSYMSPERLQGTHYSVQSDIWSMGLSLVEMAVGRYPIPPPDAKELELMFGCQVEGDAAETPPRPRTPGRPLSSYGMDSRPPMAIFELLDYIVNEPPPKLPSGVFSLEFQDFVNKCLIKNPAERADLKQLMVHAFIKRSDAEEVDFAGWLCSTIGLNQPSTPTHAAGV

IC50 [µM] | SMILES
> 20 | N#Cc1c(-c2ccccc2)cc(-c2cc(Br)ccc2O)[nH]c1=O

target: Serine/threonine-protein kinase pim-1 (Homo sapiens, UniProt P11309); experiment: Inhibition of Pim1 kinase
Sequence (P11309 whole entry): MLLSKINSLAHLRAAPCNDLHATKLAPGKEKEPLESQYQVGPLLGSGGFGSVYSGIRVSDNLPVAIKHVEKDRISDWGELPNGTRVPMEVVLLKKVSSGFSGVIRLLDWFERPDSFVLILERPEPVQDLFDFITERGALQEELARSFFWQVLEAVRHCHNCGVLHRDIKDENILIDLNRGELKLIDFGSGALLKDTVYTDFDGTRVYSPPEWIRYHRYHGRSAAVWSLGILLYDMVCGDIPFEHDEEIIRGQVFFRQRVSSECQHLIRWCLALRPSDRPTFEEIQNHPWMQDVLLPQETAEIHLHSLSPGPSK

IC50 [µM] | SMILES
0.34 | Cc1ccc(O)c(-c2cc(-c3ccccc3)c(C#N)c(=O)[nH]2)c1
0.37 | Cc1ccc(O)c(-c2cc(-c3ccccc3)[nH]c(=O)c2C#N)c1
4.41 | N#Cc1c(-c2ccccc2)cc(-c2ccc(O)cc2)nc1N
0.92 | N#Cc1c(-c2ccc(Cl)cc2)c2c([nH]c1=O)-c1ccccc1OC2
1.23 | N#Cc1c(-c2ccccc2Cl)c2c([nH]c1=O)-c1ccccc1OC2
1.03 | CCc1ccc(O)c(-c2cc(-c3cccc(Cl)c3)c(C#N)c(=O)[nH]2)c1
1.14 | COc1ccc(-c2cc(C(F)(F)F)c(C#N)c(=O)[nH]2)cc1Br
> 20 | N#Cc1c(-c2ccncc2)c2c([nH]c1=O)-c1ccccc1CC2
> 20 | N#Cc1c(-c2ccccn2)c2c([nH]c1=O)-c1ccccc1OC2
4.79 | N#Cc1c(-c2cccnc2)c2c([nH]c1=O)-c1ccccc1SC2
20 | N#Cc1c(-c2ccccc2Cl)c2c([nH]c1=O)-c1ccccc1SC2
> 20 | CCOC(=O)C1=C2C(=O)Oc3ccccc3C2N(C)C(=O)C1 (stereo not given)
> 20 | N#Cc1c(-c2ccc(F)cc2)c2c([nH]c1=O)-c1ccccc1SC2
0.43 | N#Cc1c(-c2ccc(O)cc2)cc(-c2ccccc2O)[nH]c1=O
> 20 | COc1ccc(-c2c3c([nH]c(=O)c2C#N)-c2ccccc2OC3)cc1
1.77 | Nc1n[nH]c2nc(-c3cc(Br)ccc3O)cc(-c3ccccc3)c12
20 | N#Cc1c(-c2ccncc2)c2c([nH]c1=O)-c1ccccc1OC2

target: Serine/threonine-protein kinase pim-2 (Homo sapiens, UniProt Q9P1W9); experiment: Inhibition of Pim2 kinase
Sequence (Q9P1W9 whole entry): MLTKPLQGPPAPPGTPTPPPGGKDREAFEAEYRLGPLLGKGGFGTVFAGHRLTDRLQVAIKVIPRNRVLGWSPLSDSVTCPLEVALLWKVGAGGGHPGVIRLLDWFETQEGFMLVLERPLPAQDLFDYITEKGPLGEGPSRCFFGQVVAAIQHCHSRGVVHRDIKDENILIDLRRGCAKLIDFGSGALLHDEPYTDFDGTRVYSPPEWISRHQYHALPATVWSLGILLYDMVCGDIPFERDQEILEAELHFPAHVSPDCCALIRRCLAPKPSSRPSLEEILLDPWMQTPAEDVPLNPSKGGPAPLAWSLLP

IC50 [µM] | SMILES
> 20 | N#Cc1c(-c2ccccc2)cc(-c2cc(Br)ccc2O)[nH]c1=O
